# “And” between values parts separate entries of the source, which are not always exact repeats. Identical values can stand only once.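 1) Cells in 96-well plates. 2) Compound, 48 h, 5 concentrations. 3) Linear interpolation between surrounding doses. 4) Unreached endpoint = highest concentration. GI50 = concentration required for 50% inhibition of growth. TGI is the concentration that stops growth completely.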
# Key:
# Assay in all cases: DTP human tumour cell line panel, 48 h
# MCF7 breast = test system: MCF7 breast
# NCI-H460 lung = test system: NCI-H460 lung
# K-562 leukemia = test system: K-562 leukemia
# HL-60(TB) leukemia = test system: HL-60(TB) leukemia
# SNB-19 CNS = test system: SNB-19 CNS
# DU-145 prostate = test system: DU-145 prostate
# RXF 393 renal = test system: RXF 393 renal
# UACC-62 melanoma = test system: UACC-62 melanoma
# NCI-H226 lung = test system: NCI-H226 lung
# MDA-MB-435 = test system: MDA-MB-435
# SF-539 CNS = test system: SF-539 CNS
# NCI-H23 lung = test system: NCI-H23 lung
SMILES,TGI (MCF7 breast),TGI (NCI-H460 lung) [µM],TGI (K-562 leukemia),TGI (HL-60(TB) leukemia),TGI (SNB-19 CNS),TGI (DU-145 prostate) [µM],TGI (RXF 393 renal) [µM],TGI (UACC-62 melanoma),TGI (NCI-H226 lung),TGI (MDA-MB-435),TGI (SF-539 CNS),TGI (NCI-H23 lung) [µM],GI50 (HL-60(TB) leukemia),GI50 (SNB-19 CNS),GI50 (DU-145 prostate),GI50 (UACC-62 melanoma),GI50 (SF-539 CNS),GI50 (RXF 393 renal) [µM]
CCCSc1ccc2[nH]c(N3C(=O)/C(=C/c4ccc(SC)cc4)N=C3c3ccccc3)cc2c1,> 50 µM,> 50,5.43 µM,24.8 µM,> 50 µM,> 50,> 46.6,> 50 µM,> 50 µM,21.2 µM,48.8 µM,> 50,,,,,,
Cc1ccc(C)n2c1nc1ccccc12,> 100 µM,> 100,> 100 µM,> 100 µM,> 100 µM,> 100,> 100,> 100 µM,> 100 µM,> 100 µM,> 100 µM,> 100,,,,,,
COc1cccc(C2c3cc4c(cc3OC(NNS(=O)(=O)c3ccc(C)cc3)C2C)OCO4)c1OC (stereo not drawn),79.5 µM,8.64,6.79 µM,3.28 µM,86.6 µM,7.61,21.6,33.2 µM,13.1 µM,> 100 µM,11.9 µM,> 100,,,,,,
Fc1ccc2c3c([nH]c2c1)CCN(Cc1ccccc1)C3,31.3 µM,33.1,41 µM,37.6 µM,30.8 µM,70.9,31,35.2 µM,39.5 µM,34.3 µM,39 µM,42.4,,,,,,
CC(C)=CCC[C@@H](C)C1=C(O)C(Nc2ccccc2Cl)=C(C)C(=O)C1=O,> 75 µM,> 75,> 75 µM,4.16 µM,> 75 µM,> 75,> 50.8,36 µM,29.3 µM,> 75 µM,35.7 µM,55.1,,,,,,
COc1ccc(COC(=O)NCC(=O)NC(C)C(=O)NC(Cc2ccccc2)C(=O)OCc2ccccc2)cc1 (stereo not drawn),30.7 µM and 34.9 µM,22.7,> 100 µM and 52.6 µM,10.7 µM and 37.8 µM,41.1 µM and > 100 µM,> 100,82.2,40.2 µM and > 100 µM,55.9 µM and 85.6 µM,47.3 µM and 71.7 µM,25.1 µM and > 100 µM,> 100,3.12 µM and 17.7 µM,21.5 µM and > 100 µM,31.1 µM and > 100 µM,18.8 µM and > 100 µM,12.6 µM and 28.7 µM,
CCCCc1ccc(Nc2nc(OC)c3ncn(C4CC(O)C(CO)O4)c3n2)cc1 (stereo not drawn),29.4 µM,32.9,> 100 µM,4.16 µM,34.3 µM,37.3,31.7,33.8 µM,44.5 µM,36.6 µM,29 µM,35.3,,,,,,
CC(C)=CCCC(C)CCOS(=O)C(F)(F)F (stereo not drawn),> 100 µM,46.3,> 100 µM,9.14 µM,78 µM,> 100,7.57,21.7 µM,41.4 µM,37.1 µM,> 100 µM,14,,,,,,
Cc1cccc2sc(-c3ccc(O)cc3)nc12,26.9 µM,33.3,> 100 µM,40.8 µM,31.8 µM,31.6,32.1,30.1 µM,34.6 µM,26.8 µM,37.8 µM,31.9,,,,,,
O=C1CCc2ccc(O)c(c2)Oc2ccc(cc2)C(Sc2ccccc2)CCO1 (stereo not drawn),43.8 µM,,40 µM,> 100 µM,39.8 µM,46.6,35.4,32.5 µM,30.2 µM,41.9 µM,31.4 µM,27.3,,,,,,
CC(C)(Cl)C(Br)CCC(Br)(CCl)C(Cl)CBr (stereo not drawn),> 10 µM,> 10,> 10 µM,> 10 µM,> 10 µM,> 10,> 10,,> 10 µM,> 10 µM,> 10 µM,> 10,,,,,,
COc1ccc(N=NC(=O)NC(CC(C)C)C(=O)NCC(=O)O)cc1 (stereo not drawn),> 100 µM,> 58.7,> 29.1 µM,> 100 µM,> 100 µM,> 100,> 100,> 100 µM,99 µM,> 100 µM,29.7 µM,> 100,,,,,,
CC(=O)c1ccc2c(c1)CC1(C2)Cc2cc3c(c(C(=O)O)c2C1)CCC3 (stereo not drawn),> 100 µM,> 100,> 100 µM,> 100 µM,,> 100,> 100,> 100 µM,> 100 µM,> 100 µM,> 100 µM,> 100,,,,,,
O=C(NNC(=S)NC1CCCCC1)C12CC3CC(CC(C3)C1)C2,> 100 µM,> 100,> 100 µM,> 100 µM,> 100 µM,> 100,> 100,> 100 µM,> 100 µM,> 100 µM,> 100 µM,> 100,,,,,,
N[C@@H]1CCN(c2c(F)cc3c(=O)c(C(=O)O)cn4c3c2Oc2cc3c(ccc5ccccc53)cc2-4)C1,> 100 µM,7.01,> 23.3 µM,> 59.9 µM,> 100 µM,> 100,> 100,26.7 µM,> 100 µM,> 100 µM,28.5 µM,> 100,,,,,,3.78
O=C1NN(Cc2ccccc2)C(=O)N2CCC[C@@H]12,> 100 µM,> 100,,> 100 µM,> 100 µM,> 100,> 100,> 100 µM,> 100 µM,> 100 µM,> 100 µM,> 100,,,,,,
CCN(CC)CCN(C)c1ccc(CO)c2c1C(=O)c1ccccc1S2=O (stereo not drawn),> 34.5 µM,27.8,> 20.3 µM,51.8 µM,26.9 µM,28.3,36,17.6 µM,33.6 µM,3.65 µM,3.61 µM,8.29,,,,,,
CC1=C(O)c2ccccc2C(=O)C1=O,> 100 µM,> 100,> 100 µM,> 100 µM,> 100 µM,> 100,> 100,> 100 µM,> 100 µM,> 100 µM,> 100 µM,> 100,,,,,,
